Assay results taken from patent publication US20220071996A1, “ORAL FORMULATIONS OF BRANAPLAM” (NOVARTIS AG, priority 2018, published 2022).
Values after ≈ are worked out from the molar mass of the structure shown. Like-named read-outs stand apart in the source and are kept apart here.

What was measured:
[1] = solubility of branaplam in selected excipients; assay type: physicochemical; conditions: pH 4, aqueous with cosolvent or surfactant or cyclodextrin, thermodynamic from solid
Protocol: (§1) Solubility of branaplam was evaluated in excipients, other than cyclodextrin, such as Cremophor RH40, Tween 80, PG, PEG300, and glycerol. These excipients and concentrations were selected as they are suitable for paediatric formulations. None of the tested excipients was able to support development of a formulation comprising branaplam at a concentration high enough (i.e. about 2 mg/ml or higher) to keep the dose volume in a suitable range (Table 6).
as §1, with “5a).” for “6).”
Solubility of branaplam was measured as follows: stock solutions for the excipients at target concentrations were prepared using milli-Q water and adjusted using pH 4.0 buffer. […] Suspensions were stirred for 24 hours (using a magnetic stirrer) ensuring sufficient swirling and monitoring the temperature. The suspensions were filtered through 0.45 μm nominal pore size filter (e.g. using a PES syringe), and the concentration of branaplam in the filtrate was measured using HPLC (high performance liquid chromatography). The measurements were performed in duplicate and average of the values are reported.

[2] = measured pKas of branaplam; assay type: physicochemical; conditions: acid

Work on `CC1(C)CC(Oc2ccc(-c3ccc(-c4cn[nH]c4)cc3O)nn2)CC(C)(C)N1` [branaplam, 5-(1H-pyrazol-4-yl)-2-(6-((2,2,6,6-tetramethylpiperidin-4-yl)oxy)pyridazin-3-yl)phenol] yielded a solubility at 24 h ([1]; aqueous excipient stock solution, 2 °C, in Cremophor RH 40 7.0% (w/w), 2-8° C., read-out: Solubility (mg/mL) 2-8° C.) of 0.71 mg/mL (≈ 1800 µM), a solubility at 24 h ([1]; aqueous excipient stock solution, 2 °C, in Cremophor RH 40 15.0% (w/w), 2-8° C., read-out: Solubility (mg/mL) 2-8° C.) of 1.19 mg/mL (≈ 3020 µM) and a solubility at 24 h ([1]; aqueous excipient stock solution, 2 °C, in Glycerol 5.0% (w/v), pH 4.0 buffer, 2-8° C., read-out: Solubility (mg/mL) 2-8° C.) of 0.2 mg/mL (≈ 508 µM). For the same compound, the solubility at 24 h ([1]; aqueous excipient stock solution, 2 °C, in Glycerol 10.0% (w/v), pH 4.0 buffer, 2-8° C., read-out: Solubility (mg/mL) 2-8° C.) was 0.19 mg/mL (≈ 483 µM), the solubility at 24 h ([1]; aqueous excipient stock solution, 2 °C, in Glycerol 25.0% (w/w), 2-8° C., read-out: Solubility (mg/mL) 2-8° C.) was 0.37 mg/mL (≈ 940 µM) and the solubility at 24 h ([1]; aqueous excipient stock solution, 2 °C, in PEG 300 5.0% (w/v), pH 4.0 buffer, 2-8° C., read-out: Solubility (mg/mL) 2-8° C.) was 0.27 mg/mL (≈ 686 µM). It also gave a solubility at 24 h ([1]; aqueous excipient stock solution, 2 °C, in PEG 300 10.0% (w/v), pH 4.0 buffer, 2-8° C., read-out: Solubility (mg/mL) 2-8° C.) of 0.34 mg/mL (≈ 864 µM), a solubility at 24 h ([1]; aqueous excipient stock solution, 2 °C, in PEG 300 25.0% (w/v), pH 4.0 buffer, 2-8° C., read-out: Solubility (mg/mL) 2-8° C.) of 0.87 mg/mL (≈ 2210 µM) and a solubility at 24 h ([1]; aqueous excipient stock solution, 2 °C, in PEG 400 5.0% (w/v), pH 4.0 buffer, 2-8° C., read-out: Solubility (mg/mL) 2-8° C.) of 0.21 mg/mL (≈ 534 µM). For the same compound, the solubility at 24 h ([1]; aqueous excipient stock solution, 2 °C, in PEG 400 10.0% (w/v), pH 4.0 buffer, 2-8° C., read-out: Solubility (mg/mL) 2-8° C.) was 0.45 mg/mL (≈ 1140 µM), the solubility at 24 h ([1]; aqueous excipient stock solution, 2 °C, in PEG 400 25.0% (w/v), pH 4.0 buffer, 2-8° C., read-out: Solubility (mg/mL) 2-8° C.) was 0.93 mg/mL (≈ 2360 µM) and the solubility at 24 h ([1]; aqueous excipient stock solution, 2 °C, in Propylene glycol 5.0% (w/v), pH 4.0 buffer, 2-8° C., read-out: Solubility (mg/mL) 2-8° C.) was 0.16 mg/mL (≈ 407 µM). The solubility at 24 h ([1]; aqueous excipient stock solution, 2 °C, in Propylene glycol 10.0% (w/v), pH 4.0 buffer, 2-8° C., read-out: Solubility (mg/mL) 2-8° C.) was 0.18 mg/mL (≈ 457 µM), the solubility at 24 h ([1]; aqueous excipient stock solution, 2 °C, in Propylene glycol 25.0% (w/v), pH 4.0 buffer, 2-8° C., read-out: Solubility (mg/mL) 2-8° C.) was 0.42 mg/mL (≈ 1070 µM) and the solubility at 24 h ([1]; aqueous excipient stock solution, 2 °C, in Tween 80 0.5% (w/v), pH 4.0 buffer, 2-8° C., read-out: Solubility (mg/mL) 2-8° C.) was 0.16 mg/mL (≈ 407 µM). It also gave a solubility at 24 h ([1]; aqueous excipient stock solution, 2 °C, in Tween 80 0.8% (w/v), pH 4.0 buffer, 2-8° C., read-out: Solubility (mg/mL) 2-8° C.) of 0.22 mg/mL (≈ 559 µM), a solubility at 24 h ([1]; aqueous excipient stock solution, 2 °C, in Tween 80 1.5% (w/v), pH 4.0 buffer, 2-8° C., read-out: Solubility (mg/mL) 2-8° C.) of 0.29 mg/mL (≈ 737 µM) and a solubility at 24 h ([1]; aqueous excipient stock solution, 2 °C, in Tween 80 5.0% (w/v), pH 4.0 buffer, 2-8° C., read-out: Solubility (mg/mL) 2-8° C.) of 0.73 mg/mL (≈ 1860 µM). It also gave a solubility at 24 h ([1]; aqueous excipient stock solution, 25 °C, in Cremophor RH 40 1.0% (w/w), RT, read-out: Solubility (mg/mL) RT) of 0.28 mg/mL (≈ 712 µM), a solubility at 24 h ([1]; aqueous excipient stock solution, 25 °C, in Cremophor RH 40 3.5% (w/w), RT, read-out: Solubility (mg/mL) RT) of 0.53 mg/mL (≈ 1350 µM) and a solubility at 24 h ([1]; aqueous excipient stock solution, 25 °C, in Cremophor RH 40 7.0% (w/w), RT, read-out: Solubility (mg/mL) RT) of 0.84 mg/mL (≈ 2130 µM). For the same compound, the solubility at 24 h ([1]; aqueous excipient stock solution, 25 °C, in Cremophor RH 40 15.0% (w/w), RT, read-out: Solubility (mg/mL) RT) was 1.32 mg/mL (≈ 3350 µM), the solubility at 24 h ([1]; aqueous excipient stock solution, 25 °C, in Glycerol 5.0% (w/v), pH 4.0 buffer, RT, read-out: Solubility (mg/mL) RT) was 0.18 mg/mL (≈ 457 µM) and the solubility at 24 h ([1]; aqueous excipient stock solution, 25 °C, in Glycerol 10.0% (w/v), pH 4.0 buffer, RT, read-out: Solubility (mg/mL) RT) was 0.22 mg/mL (≈ 559 µM). For the same compound, the solubility at 24 h ([1]; aqueous excipient stock solution, 25 °C, in Glycerol 25.0% (w/w), RT, read-out: Solubility (mg/mL) RT) was 0.38 mg/mL (≈ 966 µM), the solubility at 24 h ([1]; aqueous excipient stock solution, 25 °C, in PEG 300 5.0% (w/v), pH 4.0 buffer, RT, read-out: Solubility (mg/mL) RT) was 0.39 mg/mL (≈ 991 µM) and the solubility at 24 h ([1]; aqueous excipient stock solution, 25 °C, in PEG 300 10.0% (w/v), pH 4.0 buffer, RT, read-out: Solubility (mg/mL) RT) was 0.64 mg/mL (≈ 1630 µM). It also gave a solubility at 24 h ([1]; aqueous excipient stock solution, 25 °C, in PEG 300 25.0% (w/v), pH 4.0 buffer, RT, read-out: Solubility (mg/mL) RT) of 1.61 mg/mL (≈ 4090 µM), a solubility at 24 h ([1]; aqueous excipient stock solution, 25 °C, in PEG 400 5.0% (w/v), pH 4.0 buffer, RT, read-out: Solubility (mg/mL) RT) of 0.39 mg/mL (≈ 991 µM) and a solubility at 24 h ([1]; aqueous excipient stock solution, 25 °C, in PEG 400 10.0% (w/v), pH 4.0 buffer, RT, read-out: Solubility (mg/mL) RT) of 0.63 mg/mL (≈ 1600 µM). It also gave a solubility at 24 h ([1]; aqueous excipient stock solution, 25 °C, in PEG 400 25.0% (w/v), pH 4.0 buffer, RT, read-out: Solubility (mg/mL) RT) of 1.47 mg/mL (≈ 3740 µM), a solubility at 24 h ([1]; aqueous excipient stock solution, 25 °C, in Propylene glycol 5.0% (w/v), pH 4.0 buffer, RT, read-out: Solubility (mg/mL) RT) of 0.27 mg/mL (≈ 686 µM) and a solubility at 24 h ([1]; aqueous excipient stock solution, 25 °C, in Propylene glycol 10.0% (w/v), pH 4.0 buffer, RT, read-out: Solubility (mg/mL) RT) of 0.37 mg/mL (≈ 940 µM). For the same compound, the solubility at 24 h ([1]; aqueous excipient stock solution, 25 °C, in Propylene glycol 25.0% (w/v), pH 4.0 buffer, RT, read-out: Solubility (mg/mL) RT) was 0.94 mg/mL (≈ 2390 µM), the solubility at 24 h ([1]; aqueous excipient stock solution, 25 °C, in Tween 80 0.5% (w/v), pH 4.0 buffer, RT, read-out: Solubility (mg/mL) RT) was 0.25 mg/mL (≈ 635 µM) and the solubility at 24 h ([1]; aqueous excipient stock solution, 25 °C, in Tween 80 0.8% (w/v), pH 4.0 buffer, RT, read-out: Solubility (mg/mL) RT) was 0.28 mg/mL (≈ 712 µM). It also gave a solubility at 24 h ([1]; aqueous excipient stock solution, 25 °C, in Tween 80 1.5% (w/v), pH 4.0 buffer, RT, read-out: Solubility (mg/mL) RT) of 0.41 mg/mL (≈ 1040 µM), a solubility at 24 h ([1]; aqueous excipient stock solution, 25 °C, in Tween 80 5.0% (w/v), pH 4.0 buffer, RT, read-out: Solubility (mg/mL) RT) of 0.89 mg/mL (≈ 2260 µM) and a solubility at 24 h ([1]; glycerol 25.0% (w/v) aqueous solution in pH 4.0 buffer, 2 °C, in Glycerol 25.0% (w/v), pH 4.0 buffer, 2-8° C., read-out: Solubility (mg/mL) 2-8° C.) of 0.37 mg/mL (≈ 940 µM). The solubility at 24 h ([1]; glycerol 25.0% (w/v) aqueous solution in pH 4.0 buffer, 25 °C, in Glycerol 25.0% (w/v), pH 4.0 buffer, RT, read-out: Solubility (mg/mL) RT) was 0.38 mg/mL (≈ 966 µM) and the pKa [2] was 11.5.
